Test results taken from paper PMC6278394, “Screening of Angiotensin-I Converting Enzyme Inhibitory Peptides Derived from Caulerpa lentillifera” (Molecules, 2018).
Ends that are not written are not given here.

How the values were obtained:
[1] = molecular target: T1, ACE (EC 3.4.15.1) from rabbit lungs (Oryctolagus cuniculus, UniProt P12822); experiment: pre-incubation experiment of ACEI peptide with ACE (stability towards ACE, inhibitor type); format: biochemical; conditions: peptide 100 µM; for ACE inhibition activity without pre-incubation: before pre-incubation with ACE; for ACE inhibition activity after pre-incubation: pre-incubated with ACE (0.05 mU/µL) 3 h at 37 °C, then HHL 2.5 mM 1 h at 37 °C
T1 construct: ACE (EC 3.4.15.1) from rabbit lungs; purchased Sigma Chemical Co. (St. Louis, MO, USA); host or cells: rabbit lung tissue
T1 sequence (P12822 34-1310): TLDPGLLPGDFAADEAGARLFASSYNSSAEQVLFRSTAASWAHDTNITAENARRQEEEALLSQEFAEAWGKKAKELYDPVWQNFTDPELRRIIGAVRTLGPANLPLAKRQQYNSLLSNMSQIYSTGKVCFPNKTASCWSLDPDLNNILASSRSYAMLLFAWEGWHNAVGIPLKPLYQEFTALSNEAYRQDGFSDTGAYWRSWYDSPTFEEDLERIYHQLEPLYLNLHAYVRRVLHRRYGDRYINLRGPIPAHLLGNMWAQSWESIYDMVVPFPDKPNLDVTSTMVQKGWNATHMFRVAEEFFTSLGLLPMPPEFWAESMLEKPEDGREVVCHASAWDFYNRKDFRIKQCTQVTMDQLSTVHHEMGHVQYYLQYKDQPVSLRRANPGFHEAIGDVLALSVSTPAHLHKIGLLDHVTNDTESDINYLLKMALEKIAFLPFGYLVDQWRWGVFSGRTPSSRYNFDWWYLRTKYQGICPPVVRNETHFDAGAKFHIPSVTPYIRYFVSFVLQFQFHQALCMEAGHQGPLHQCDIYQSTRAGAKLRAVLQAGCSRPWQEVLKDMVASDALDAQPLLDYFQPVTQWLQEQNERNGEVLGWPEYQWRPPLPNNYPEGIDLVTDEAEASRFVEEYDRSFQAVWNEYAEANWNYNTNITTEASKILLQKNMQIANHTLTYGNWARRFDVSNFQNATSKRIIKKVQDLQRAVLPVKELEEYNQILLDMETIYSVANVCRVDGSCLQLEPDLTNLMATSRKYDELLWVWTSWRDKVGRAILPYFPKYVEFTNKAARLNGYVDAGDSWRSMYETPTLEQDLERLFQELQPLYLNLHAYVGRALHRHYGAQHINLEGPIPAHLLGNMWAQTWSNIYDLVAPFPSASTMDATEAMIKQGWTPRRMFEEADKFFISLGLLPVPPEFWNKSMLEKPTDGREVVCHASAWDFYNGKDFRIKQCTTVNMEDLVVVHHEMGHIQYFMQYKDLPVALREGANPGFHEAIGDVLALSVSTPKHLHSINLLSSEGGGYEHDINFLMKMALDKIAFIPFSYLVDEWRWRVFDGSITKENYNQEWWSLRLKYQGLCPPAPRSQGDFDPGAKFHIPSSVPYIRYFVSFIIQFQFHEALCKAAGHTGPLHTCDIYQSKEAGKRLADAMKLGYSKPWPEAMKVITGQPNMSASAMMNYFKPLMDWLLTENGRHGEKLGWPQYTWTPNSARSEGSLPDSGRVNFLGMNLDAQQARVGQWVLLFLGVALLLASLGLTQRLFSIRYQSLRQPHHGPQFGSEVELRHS
Experimental: Since ACE is a dipeptidyl-carboxypeptidase, whether the ACEI peptides will be cleaved by ACE is a critical issue for an in vivo application. Pre-incubation of ACEI peptides with ACE before adding substrate is often used to monitor the reactivity between ACE and the ACEI peptide.
The stability of ACEI peptides towards peptidase ACE was determined according to the method described by Ruiz et al.. Briefly, ACEI peptide (at 100 µM) in 10 µL of deionized water was incubated with 20 µL of ACE (0.05 mU/µL) for 3 h at 37 °C. After that, 30 µL of 2.5 mM HHL was added and the reaction mixture was incubated at 37 °C for 1 h. The reaction was stopped by adding 60 µL 1 N HCl, and the inhibition degree of the peptide was calculated as in Section 3.5.

[2] = molecular target: T1, ACE (EC 3.4.15.1) from rabbit lungs; experiment: in vitro ACE inhibitory assay (HHL substrate, hippuric acid by RP-HPLC); format: biochemical; conditions: synthetic peptide; HHL 2.5 mM, borate buffer pH 8.3, 37 °C, HPLC read-out at 228 nm; triplicate, nonlinear regression (Graphpad Prism 6.0)
Experimental: The ACEI activity assay was performed according to a previous report with a slight modification. For each assay, 30 µL 2.5 mM Hippuryl-L-histidyl-L-leucine (HHL) was used as a substrate and added by 10 µL of testing sample (peptides) at a certain concentration in 200 mM borate buffer containing 300 mM NaCl (adjusted to pH 8.3). Blank sample using 10 µL of borate buffer and was added by the same substrate. The positive control was 10 µL of 10 µM captopril. All samples were pre-incubated at 37 °C for 5 min. Subsequently, 20 µL of ACE (0.05 mU/µL) in 200 mM borate buffer was added to the blank sample, positive control and testing sample. The reaction was incubated statically at 37 °C for 30 min and then incubated thermostatically using shaker incubation (200 rpm) at 37 °C for 30 min. […] The HHL and ACE’s hydrolyzed product, hippuric acid (HA), were quantitatively analyzed using HPLC equipped with a C18 column. […] The result of HA was detected by UV detector at 228 nm. The ACE inhibition (%) was determined according to the following equation:ACE Inhibition (%) = [1 − (ΔAInhibitor/ΔABlank)] × 100
Here, ΔAInhibitor and ΔABlank were the peak areas of HA in testing and blank samples, respectively. […] The IC50 was determined using Graphpad Prism 6.0 (GraphPad Software, Inc., La Jolla, CA, USA) by a nonlinear regression of ACE inhibition result (%) caused by different concentrations of inhibitor.

AIDPVRA [AA-7]
decrease of inhibition activity after pre-incubation ([1]; 3 h pre-incubation with ACE at 37 °C): about 10%
ACE inhibition activity without pre-incubation [1]: 68.07%
ACE inhibition activity after pre-incubation [1]: 57.89%
IC50 [2]: 65.8 ± 0.92 µM

FDGIP [FP-5]
ACE inhibition activity without pre-incubation [1]: 78.89%
ACE inhibition activity after pre-incubation [1]: 76.47%
IC50 [2]: 58.9 ± 0.68 µM
